The record followed here is patent US20190092720A1, “FUNCTIONALIZED BENZAMIDE DERIVATIVES AS ANTIVIRAL AGENTS AGAINST HBV INFECTION” (BARUCH S. BLUMBERG INSTITUTE, priority 2012, published 2019).

pEC50: −log10 of the molar value.

Data set [1] can be described thus: Cytotoxicity in AML12HBV10 cells (MTT assay). Type of data set: cell-based, murine. The following applies: mouse, concentration that reduces viability by 50%, serial dilution 50 μM to 0.39 μM. As to the method: Determination of cytotoxicity of compounds of the disclosure in AML12HBV10 cells: To determine the cytotoxicity of the compounds, AML12HBV10 cells were seeded into 96-well plates at a density of 2×10^4 cells per well and cultured in DMEM/F12 media with 10% fetal bovine serum in the absence of tetracycline to allow pgRNA transcription and HBV DNA replication. One day after seeding, cells were left untreated or treated with a serial dilution of testing compounds, ranging from 50 μM to 0.39 μM, for 48 hours. The cell viability was measured by a MTT assay, following procedure provided by the manufacturer (Promega). The cytotoxicity of a compound was expressed as the concentration of compound that reduces the viability of the cells by 50% (CC50).
(In general: Tetrazolium dyes change colour on reduction, which living cells bring about.)

A further data set concerns HBV capsids. Description: Particle gel assay of nucleocapsids in AML12HBV10 cells. Type of data set: cell-based, Hepatitis B virus (HBV). The following applies: 2 days, FIG. 1 panel B. On the procedure: FIG. 1. Antiviral mechanism of the compounds of the present invention. AML12HBV10 cells were left untreated (NT) or treated with the indicated concentrations of the compounds of the disclosure Compound 6 and Compound 19, respectively, for 2 days. Bay-4109 (3 µM) or AT-61 (25 µM) served as positive controls. (A) Intracellular viral RNA was determined by Northern blot hybridization. Ribosomal RNA served as a loading control. (B) The total amounts of nucleocapsids were determined by a particle gel assay. (C) Encapsidated pgRNA were extracted and measured by Northern blot. (D) Nucleocapsid-associated HBV DNA was quantified by alkaline-treatment of nucleocapsids on the membrane following the particle gel assay and hybridized with a HBV-specific riboprobe. (E) HBV DNA replication intermediates were extracted and determined by Southern blot hybridizations.
Procedures of viral capsids and nucleocapsid-associated DNA analysis: AML12HB10 cells were lysed by addition of 300 μl buffer containing 10 mM Tris-HCl (pH7.6), 100 mM NaCl, 1 mM EDTA and 0.1% NP-40 to each well of 12-well plate. Cell debries were removed by centrifugation at 5000 g for 10 minutes. Ten microliters of the clarified cell lysates were fractionated by electrophoresis through nondenaturing 1% agarose gels and transferred to a nitrocellulose filter by blotting with TNE buffer (10 mM Tris-HCl, pH7.6; 150 mM NaCl and 1 mM EDTA). HBV capsids were detected by probing the membrane with an antibody against HBV core protein (DAKO). […] To detect capsid associated HBV DNA, the membrane were treated with buffer containing 0.5N NaOH and 1.5 M NaCl for 5 minutes and followed by neutralization with buffer containing 1 M TRIS-HCl and 1.5M NaCl for 5 minutes. The viral DNA was detected by hybridization with a α-^32P-UTP (800 Ci/mmol, Perkin Elmer) labeled minus strand specific full-length HBV riboprobe (Xu et al.).

In data set [2] the test system is HBV replication in AML12HBV10 cells. Put plainly: Antiviral efficacy in AML12HBV10 cells (HBV DNA dot-blot hybridization). The following applies: Hepatitis B virus, AML12HBV10, 48 h, read-out: AML12HBV10 EC50, concentration that reduces the amount of HBV DNA by 50%, serial dilution 50 μM to 0.39 μM. Type of data set: cell-based, Hepatitis B virus (HBV). On the procedure: The HBV replication inhibitors of the present invention are capable of treating and preventing diseases associated with HBV infection.
The antiviral efficacy of the compounds of the disclosure, as presented in Table 1, were determined in AML12HBV10 cells. AML12HBV10 is an immortalized murine hepatocyte (AML12)-derived stable cell line that supports robust HBV replication in a tetracycline inducible manner (Xu et al.). The cells were seeded into 96 well plates at a density of 2×10^4 cells per well and cultured in DMEM/F12 media with 10% fetal bovine serum in the absence of tetracycline to allow pgRNA transcription and HBV DNA replication. One day after seeding, cells were left untreated or treated with a serial dilution of testing compounds, ranging from 50 μM to 0.39 μM, for 48 hours. Cells were then lysed by adding into each well of 100 μl lysis buffer containing 10 mM Tris-HCl (pH 7.6), 1 mM EDTA, 100 mM NaCl and 1% NP-40 and incubated at 37° C. for 30 minutes. Half amount (50 μl) of cell lysate from each well was combined with equal volume of denaturing solution containing 0.5N NaOH and 1.5M NaCl. After 5 minute incubation, 100 µl of neutralization solution (1M Tris-HCl, pH 7.4, 1.5M NaCl) was added into each well. The denatured cell lysates (totally 200 μl) were applied onto Nylon membrane using 96-well dot-blot manifold (Biorad). HBV DNA in the cell lysates were determined by dot-blot hybridization with alpha-^32P-UTP-labelled riboprobe specific for HBV minus strand DNA. The antiviral efficacy of a compound of the disclosure was expressed as the concentration that reduces the amount of HBV DNA by 50% (EC50).

`O=C(Nc1cccc(Cl)c1)c1scc2c1OCCO2` [Entry 6]: the CC50 (as a rule, the concentration at which the toxic effect on the cells reaches its halfway point) at 48 h in data set [1] was more than 50000 nM. The capsid formation entry in the data set on HBV capsids is “did not significantly affect”. Further, the pEC50 in data set [2] was 6.40.
